Measurements taken from paper PMC8158245, “Novel chalcone/aryl carboximidamide hybrids as potent anti-inflammatory via inhibition of prostaglandin E2 and inducible NO synthase activities: design, synthesis, molecular docking studies and ADMET prediction” (Journal of Enzyme Inhibition and Medicinal Chemistry, 2021).
Where “and” joins values, the source holds several entries; their conditions need not be identical. Identical values can stand only once. Like-named read-outs stand apart in the source and are kept apart here.

Columns and labels:
[1] = tested on: LPS-induced NO production; details: cited from earlier work
iNOS [2] = biological target: T1, iNOS (Mus musculus, UniProt P29477); details: cited from earlier work
T1 construct: endogenous in cells; host or cells: RAW 264.7 cells induced with LPS
T1 sequence (P29477 1-1144): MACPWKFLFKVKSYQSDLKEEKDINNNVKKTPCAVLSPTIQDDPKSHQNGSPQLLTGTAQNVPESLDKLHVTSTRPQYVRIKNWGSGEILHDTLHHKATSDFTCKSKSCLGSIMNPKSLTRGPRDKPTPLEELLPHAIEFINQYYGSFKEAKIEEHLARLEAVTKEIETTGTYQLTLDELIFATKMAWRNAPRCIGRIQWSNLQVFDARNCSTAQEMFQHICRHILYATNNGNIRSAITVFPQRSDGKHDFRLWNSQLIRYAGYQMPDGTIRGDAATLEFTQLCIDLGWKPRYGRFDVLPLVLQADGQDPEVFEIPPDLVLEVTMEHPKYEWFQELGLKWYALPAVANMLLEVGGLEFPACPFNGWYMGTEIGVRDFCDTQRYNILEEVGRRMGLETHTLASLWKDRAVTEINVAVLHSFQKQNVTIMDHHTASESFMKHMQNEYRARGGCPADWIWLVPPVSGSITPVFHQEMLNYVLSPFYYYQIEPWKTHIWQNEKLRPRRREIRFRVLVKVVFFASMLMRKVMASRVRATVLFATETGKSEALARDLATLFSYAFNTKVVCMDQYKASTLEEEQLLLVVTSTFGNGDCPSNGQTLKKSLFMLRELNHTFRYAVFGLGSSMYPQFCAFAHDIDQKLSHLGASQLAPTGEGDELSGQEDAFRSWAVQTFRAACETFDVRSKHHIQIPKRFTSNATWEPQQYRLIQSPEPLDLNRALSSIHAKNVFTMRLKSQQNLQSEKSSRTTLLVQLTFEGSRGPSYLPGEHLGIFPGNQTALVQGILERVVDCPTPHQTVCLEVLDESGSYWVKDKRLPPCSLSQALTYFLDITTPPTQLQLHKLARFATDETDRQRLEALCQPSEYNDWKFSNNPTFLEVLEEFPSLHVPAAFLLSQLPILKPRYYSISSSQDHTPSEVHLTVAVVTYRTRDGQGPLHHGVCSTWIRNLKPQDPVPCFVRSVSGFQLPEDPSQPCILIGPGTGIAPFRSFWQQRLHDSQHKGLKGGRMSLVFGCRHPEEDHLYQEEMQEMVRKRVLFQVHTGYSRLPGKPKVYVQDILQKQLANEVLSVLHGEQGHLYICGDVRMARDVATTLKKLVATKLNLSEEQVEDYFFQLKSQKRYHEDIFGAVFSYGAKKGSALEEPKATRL

PGE2 = details: cited from earlier work
[3] = tested on: LPS-induced NO production in RAW 264.7 cells; assay: Griess assay for NO release from LPS-stimulated RAW 264.7 cells; type: cell-based; details: Mus musculus, RAW264.7; for IC50: LPS-induced RAW 264.7 cells; for inhibition at 5 µM: compounds at 5 µM, 2 h before LPS, RAW 264.7 cells, read-out: NO Inhibition rates (%) ± SD
Method: Equal volumes of Griess reagent and the supernatant, obtained from treated RAW264.7 cells with the compounds 2 h before LPS induction, were mixed for 10 min at room temperature in the dark. The absorbance was measured at 540 nm using ELISA plate reader and the nitrite concentration was calculated from sodium nitrite standard curve. The percentage inhibition (%) is calculated as absorbance at 540 nm of (LPS-compounds)/absorbance at 540 nm of (LPS-control) ×100[47]^,[48].

bovine COX-1 = biological target: T2, bovine COX-1 (Ovis aries, UniProt P05979); assay: In vitro COX-1 inhibition assay (Cayman kit); type: biochemical
T2 construct: purchased Cayman Chemical 560101
T2 sequence (P05979 25-600): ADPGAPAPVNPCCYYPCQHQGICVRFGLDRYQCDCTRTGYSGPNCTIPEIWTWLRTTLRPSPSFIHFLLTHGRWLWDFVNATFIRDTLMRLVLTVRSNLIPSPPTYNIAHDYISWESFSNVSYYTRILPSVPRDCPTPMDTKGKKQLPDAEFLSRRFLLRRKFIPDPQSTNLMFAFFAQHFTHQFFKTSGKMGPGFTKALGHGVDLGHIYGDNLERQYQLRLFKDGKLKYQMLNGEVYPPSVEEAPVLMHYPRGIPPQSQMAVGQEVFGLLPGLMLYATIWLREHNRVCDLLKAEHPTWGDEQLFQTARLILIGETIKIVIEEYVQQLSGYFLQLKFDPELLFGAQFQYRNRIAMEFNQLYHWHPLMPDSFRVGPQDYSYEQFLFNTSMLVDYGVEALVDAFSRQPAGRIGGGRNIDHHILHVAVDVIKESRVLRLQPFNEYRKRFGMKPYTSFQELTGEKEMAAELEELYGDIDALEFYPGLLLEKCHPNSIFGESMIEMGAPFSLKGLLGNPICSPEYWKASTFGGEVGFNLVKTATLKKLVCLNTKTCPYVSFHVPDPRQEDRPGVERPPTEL

iNOS [4] = biological target: T1, iNOS; assay: iNOS enzymatic activity in LPS-induced RAW 264.7 cells; type: cell-based
Method: Then, the NOS assay reaction solution (100 µl/well) was added and incubated for an extra 2 h at 37 °C. The fluorescence with excitation wavelength at 485 nm and emission wavelength at 528 nm was measured using a fluorescent microplate reader.

[5] = MTT cytotoxicity assay on RAW 264.7 cells; type: cell-based; details: mouse; for IC50 at 20 h: with LPS; for IC50: without LPS
Method: MTT assay was used to assess the cell viability of RAW 264.7 cells cultured in RPMI-1640 complete media. […] Afterwards, 5 µl of MTT solution were added and incubated for further 4 h. Finally, 150 ul of dimethyl sulfoxide (DMSO) were added and the optical density was assessed at 570 nm using an ELISA plate reader.

COX-2 [6] = assay: In vitro COX-2 inhibition assay (Cayman kit); type: biochemical, bovine; details: selectivity index from COX 1 and COX 2 IC50
[7] = tested on: PGE2 production in RAW 264.7 cells; assay: PGE2 concentration by ELISA in LPS-treated RAW 264.7 cells; type: cell-based; details: Mus musculus, RAW264.7; LPS-induced RAW 264.7 cells
Method: After seeding and incubation of RAW 264.7 cells for 24 h, then the cells were treated with the compounds (4c, 4d, 6a, 6c, 6d and 6e) at different concentrations and with LPS (1 µg/ml) for another 24 h. The concentration of prostaglandin E2 (PGE2) was measured in the culture media using ELISA kit (R&D Systems, Minneapolis, MN)[50].

[8] = tested on: carrageenan-induced paw edoema; assay: Carrageenan-induced rat paw edoema; type: in vivo, Wistar albino rats; details: for % of edoema inhibition (% mean ± SEM), 1 h / % of edoema inhibition (% mean ± SEM), 2 h / % of edoema inhibition (% mean ± SEM), 4 h / % of edoema inhibition (% mean ± SEM), 3 h: rat, 50 mg/kg oral; for % of edoema inhibition (% mean ± SEM), 1 h: 1 h after carrageenan; for % of edoema inhibition (% mean ± SEM), 2 h: 2 h after carrageenan; for % of edoema inhibition (% mean ± SEM), 4 h: 4 h after carrageenan; for % of edoema inhibition (% mean ± SEM), 3 h: 3 h after carrageenan
Method: The anti-inflammatory activity of the inspiring active compounds in vitro (4c, 4d, 6a, 6c, 6d and 6e) were further estimated in vivo using the carrageenan-induced paw edoema test. […] The paw thickness was assessed using Vernier calliper after carrageenan injection for 1,2, 3 and 4 h. Wistar albino rats (males weighing 120–140 g, six rats per group) were grouped as follows: Group 1 (Control) rats were received the vehicle. […] The percentage inhibition of edoema thickness was calculated at each time interval in comparison to the control group.

15-LOX = tested on: 15-LOX; set-up: method as in PMID 30878890; details: Figure 1; cited from earlier work
COX-2 [9] = tested on: COX-2; set-up: method as in PMID 30878890; details: cited from earlier work; for IC50: Figure 1
[10] = four hours after carrageenan injection

Row | Compound | IC50 [3] [µM] | inhibition at 5 µM [3] [%] | IC50 (bovine COX-1) [µM] | IC50 (iNOS [4]) [µM] | IC50 at 20 h [5] [µM] | IC50 [5] [µM] | SI (COX-2 [6]) | IC50 [7] [µM] | % of edoema inhibition (% mean ± SEM), 1 h [8] [%] | % of edoema inhibition (% mean ± SEM), 2 h [8] [%] | other results
1 | COc1ccc2c(c1)c(CC(=O)O/N=C(\N)c1ccccc1)c(C)n2C(=O)c1ccc(Cl)cc1 [VI] |  |  |  |  |  |  |  |  |  |  | IC50 ([1]; as printed in the introduction, read-out: LPS-induced NO production IC50): 10.7 µM; IC50 (iNOS [2]; as printed in the introduction, read-out: iNOS activity IC50): 2.31 µM; IC50 (PGE2): 0.029 µM
2 | COc1ccc(C(=O)/C=C/c2ccc(OCC(=O)O/N=C(\N)c3ccc([N+](=O)[O-])cc3)cc2)cc1 [Compound 6e, N’-(2-{4-[(1E)-3-(4-Methoxyphenyl)-3-oxoprop-2-en-1-yl]phenoxy}acetoxy)-4-nitrobenzenecarboximidamide] | 15.8 | 57.9 ± 1.3 | 12.7 ± 0.66 | 7.15 | > 80 | > 80 | 7.43 | 0.0451 | 10.23 ± 3.17 | 19.34 ± 2.45 | melting point: 193 to 194 °C; % of edoema inhibition (% mean ± SEM), 4 h [8]: 33.21 ± 3.15%
3 | COc1ccc(C(=O)/C=C/c2ccc(OCC(=O)O/N=C(\N)c3ccccc3)cc2)cc1 [Compound 6a, N’-(2-{4-[(1E)-3-(4-Methoxyphenyl)-3-oxoprop-1-en-1-yl]phenoxy}acetoxy) benzenecarboximidamide] | 13.6 | 55.5 ± 2.4 | 20.9 ± 1.09 | 6.32 | > 80 | > 80 | 19 | 0.0481 | 14.36 ± 3.11 | 24.33 ± 2.26 | melting point: 172 to 173 °C; % of edoema inhibition (% mean ± SEM), 3 h ([8]; 50 mg/kg): 45.83% and 45.83 ± 2.74%; % of edoema inhibition (% mean ± SEM), 4 h [8]: 55.74 ± 2.59%
4 | COc1ccc2c(c1)c(CC(=O)O/N=C(\N)c1ccc(OC)c(OC)c1)c(C)n2C(=O)c1ccc(Cl)cc1 [VII] |  |  |  |  |  |  |  |  |  |  | IC50 ([1]; Figure 1, read-out: NO IC50): 6.53 µM; IC50 (iNOS [2]; Figure 1, read-out: iNOS IC50): 3.26 µM; IC50 (PGE2): 0.0345 µM
5 | COc1ccc2cc(C(C)C(=O)O/N=C(\N)c3ccc(OC)c(OC)c3)ccc2c1 (centres unmarked) [V] |  |  |  |  |  |  |  |  |  |  | IC50 (15-LOX): 2.07 nM; IC50 (COX-2 [9]): 6.4 nM; COX-2 inhibitory potency relative to celecoxib (COX-2 [9]): approximately 6.6 folds
6 | COc1ccc2cc(C(C)C(=O)O/N=C(\N)c3ccc(Cl)cc3)ccc2c1 (centres unmarked) [IV] |  |  |  |  |  |  |  |  |  |  | IC50 (15-LOX): 1.77 nM; IC50 (COX-2 [9]): 7.15 nM
7 | COc1ccc(C(=O)/C=C/c2ccc(OCC(=O)O/N=C(\N)c3ccc(OC)c(OC)c3)cc2)cc1 [Compound 6d, N’-(2-{4-[(1E)-3-(4-Methoxyphenyl)-3-oxoprop-2-en-1-yl]phenoxy}acetoxy) -3,4-dimethoxybenzenecarboximidamide] | 4.36 | 78.2 ± 3.4 | 17.8 ± 0.93 | 1.91 | > 80 | > 80 | 0.17 | 0.0212 | 13.25 ± 2.04 | 38.43 ± 3.62 | anti-inflammatory activity relative to celecoxib [8, 10]: ~7 fold; anti-inflammatory activity relative to indomethacin [8, 10]: ~1.5 fold; % of edoema inhibition (% mean ± SEM), 3 h ([8]; 50 mg/kg): 65.31% and 65.31 ± 2.64%; % of edoema inhibition (% mean ± SEM), 4 h ([8]; 50 mg/kg): 78.51% and 78.53% and 78.53 ± 3.28%
